Three compounds from US20220279826A1, “OFF-FLAVOR SUPPRESSING AGENT” (AJINOMOTO CO., INC., priority 2019, published 2022) can be followed below.

A short description of assay [1]: Sensory evaluation of off-taste suppressing effect in 0.8 wt % potassium chloride aqueous solution (Experimental Examples 1 and 2). To be noted: for off-taste suppressing effect: 0.8 wt % potassium chloride aqueous solution; for intensity of off-tastes (bitter taste, metallic taste, harsh taste, astringent taste) derived from potassium chloride: potassium chloride aqueous solutions, Tables 1 to 14. The protocol: Each compound shown in the following Tables 1 to 13 was added to a 0.8 wt % potassium chloride aqueous solution at the concentration (addition concentration) shown in the following Tables 1 to 13 to prepare each evaluation sample.
Based on the following evaluation criteria, a panel of two experts determined by consensus the intensity of off-tastes (bitter taste, metallic taste, harsh taste, astringent taste) derived from potassium chloride in each evaluation sample, by reference to each potassium chloride aqueous solution adjusted to 0.8 wt %, 0.75 wt %, 0.7 wt %, or 0.65 wt %.
−: intensity of the same level as potassium chloride aqueous solution with potassium chloride concentration of not less than 0.8 wt %
+: intensity of the same level as potassium chloride aqueous solution with potassium chloride concentration of not less than 0.75 wt % and less than 0.8 wt %
++: intensity of the same level as potassium chloride aqueous solution with potassium chloride concentration of not less than 0.7 wt % and less than 0.75 wt %
+++: intensity of the same level as potassium chloride aqueous solution with potassium chloride concentration of not less than 0.65 wt % and less than 0.7 wt %
Each compound shown in the following Table 14 was added to a 0.8 wt % potassium chloride aqueous solution at the concentration (addition concentration) shown in the following Table 14 to prepare each evaluation sample.

Assay [2] in a line: Sensory evaluation in ramen noodle soup solution with potassium chloride (Experimental Example 3). To be noted: for off-taste suppressing effect: Ramen noodle soup solution with 0.8 wt % potassium chloride; for intensity of off-tastes (bitter taste, metallic taste, harsh taste, astringent taste) derived from potassium chloride: base solutions of Tables 15 to 17 (ramen noodle soup, chicken broth, potage). The protocol:
(§1) As shown in the following (1) to (3) below, 0.8 wt % of potassium chloride was added to a food base powder corresponding to 0.5 wt % of sodium chloride to prepare each base solution having an off-taste derived from potassium chloride.
Potassium chloride (0.8 g) was added to a soup powder (1.1 g) of a commercially available instant ramen noodle (manufactured by SANYO FOODS Co., Ltd., trade name “Sapporo Ichiban Shouyuaji”), hot water (98.1 g) was added to dissolve the mixture to prepare a base solution (ramen noodle soup solution).
(§2) Each compound shown in the following Tables 15 to 17 was added to each base solution (ramen noodle soup solution, chicken broth solution, potage solution) so as to achieve the concentration (addition concentration) shown in the following Tables 15 to 17 to prepare each evaluation sample.
(§3) By a method similar to that in Experimental Example 1, a panel of two experts determined the intensity of off-tastes (bitter taste, metallic taste, harsh taste, astringent taste) derived from potassium chloride in each evaluation sample.

The nature of assay [3]: Sensory evaluation in chicken broth solution with potassium chloride (Experimental Example 3). To be noted: chicken broth solution with 0.8 wt % potassium chloride. The protocol:
as §1
Potassium chloride (0.8 g) was added to a commercially available powdered chicken broth mix (manufactured by Ajinomoto Co., Inc., trade name “Marutorigara Soup”) (1.0 g), hot water (98.2 g) was added to dissolve the mixture to prepare a base solution (chicken broth soup solution).
as §2, §3

Assay [4] in a line: Sensory evaluation in potage solution with potassium chloride (Experimental Example 3). As to conditions: Potage solution with 0.8 wt % potassium chloride. The protocol:
as §1
Potassium chloride (0.8 g) was added to a commercially available powdered instant potage (manufactured by Ajinomoto Co., Inc., trade name “Knorr (registered trade mark) Cup Soup Potage”) (7.1 g), hot water (92.1 g) was added to dissolve the mixture to prepare a base solution (potage solution).
as §2, §3

The mark [5] stands for this setting: addition concentration 1 weight ppb (0.125 weight ppm with respect to potassium chloride).
[6] abbreviates: addition concentration 5 weight ppb (0.625 weight ppm with respect to potassium chloride).
Setting [7] is: addition concentration 10 weight ppb (1.25 weight ppm with respect to potassium chloride).
The mark [8] stands for this setting: addition concentration 50 weight ppb (6.25 weight ppm with respect to potassium chloride).
Where [9] appears, read: addition concentration 100 weight ppb (12.5 weight ppm with respect to potassium chloride).
Setting [10] is: addition concentration 500 weight ppb (62.5 weight ppm with respect to potassium chloride).
Setting [11] is: addition concentration 10 ppb (1.25 weight ppm with respect to potassium chloride).
[12] abbreviates: addition concentration 100 ppb (12.5 weight ppm with respect to potassium chloride).

Molecules are shown by their SMILES.

Turning to `CC1=C(O)C(=O)OC1C` (stereo not drawn) [4,5-dimethyl-3-hydroxy-2(5H)-furanone], the off-taste suppressing effect entry in assay [1] (setting [5]) is “+ (intensity of the same level as potassium chloride aqueous solution with potassium chloride concentration of not less than 0.75 wt % and less than 0.8 wt %)”; in assay [1] (setting [6]), “++ (intensity of the same level as potassium chloride aqueous solution with potassium chloride concentration of not less than 0.7 wt % and less than 0.75 wt %)”; in assay [1] (setting [7]), “++ (intensity of the same level as potassium chloride aqueous solution with potassium chloride concentration of not less than 0.7 wt % and less than 0.75 wt %)”; in assay [1] (setting [8]), “+ (intensity of the same level as potassium chloride aqueous solution with potassium chloride concentration of not less than 0.75 wt % and less than 0.8 wt %)”; in assay [1] (setting [9]), “+ (intensity of the same level as potassium chloride aqueous solution with potassium chloride concentration of not less than 0.75 wt % and less than 0.8 wt %)”; in assay [1] (setting [10]) it was “+ (intensity of the same level as potassium chloride aqueous solution with potassium chloride concentration of not less than 0.75 wt % and less than 0.8 wt %)”. For the same compound, the off-taste suppressing effect entry in assay [1] (addition concentration 1000 weight ppb (125 weight ppm with respect to potassium chloride)) was “+ (intensity of the same level as potassium chloride aqueous solution with potassium chloride concentration of not less than 0.75 wt % and less than 0.8 wt %)”; in assay [2] (setting [11]) it was “++ (intensity of the same level as potassium chloride aqueous solution with potassium chloride concentration of not less than 0.7 wt % and less than 0.75 wt %)”; in assay [3] (setting [11]), “++ (intensity of the same level as potassium chloride aqueous solution with potassium chloride concentration of not less than 0.7 wt % and less than 0.75 wt %)”; in assay [4] (setting [11]), “++ (intensity of the same level as potassium chloride aqueous solution with potassium chloride concentration of not less than 0.7 wt % and less than 0.75 wt %)”. Moreover, the “intensity of off-tastes (bitter taste, metallic taste, harsh taste, astringent taste) derived from potassium chloride” value (“intensity of off-tastes” for short) in assay [1] and in assay [2] was “decreased” each time.

`CC1=C(O)C(=O)C(C)O1` (stereo not drawn) [4-hydroxy-2,5-dimethyl-3(2H)-furanone]: the off-taste suppressing effect result in assay [1] (setting [5]) is “+ (intensity of the same level as potassium chloride aqueous solution with potassium chloride concentration of not less than 0.75 wt % and less than 0.8 wt %)”; in assay [1] (setting [6]) it was “+ (intensity of the same level as potassium chloride aqueous solution with potassium chloride concentration of not less than 0.75 wt % and less than 0.8 wt %)”; in assay [1] (setting [7]) it was “++ (intensity of the same level as potassium chloride aqueous solution with potassium chloride concentration of not less than 0.7 wt % and less than 0.75 wt %)”; in assay [1] (setting [8]), “++ (intensity of the same level as potassium chloride aqueous solution with potassium chloride concentration of not less than 0.7 wt % and less than 0.75 wt %)”; in assay [1] (setting [9]), “++ (intensity of the same level as potassium chloride aqueous solution with potassium chloride concentration of not less than 0.7 wt % and less than 0.75 wt %)”; in assay [2] (setting [11]), “++ (intensity of the same level as potassium chloride aqueous solution with potassium chloride concentration of not less than 0.7 wt % and less than 0.75 wt %)”. Moreover, the off-taste suppressing effect entry was “++ (intensity of the same level as potassium chloride aqueous solution with potassium chloride concentration of not less than 0.7 wt % and less than 0.75 wt %)” in assay [3] (setting [11]); “++ (intensity of the same level as potassium chloride aqueous solution with potassium chloride concentration of not less than 0.7 wt % and less than 0.75 wt %)” in assay [4] (setting [11]). Besides, the “intensity of off-tastes” value in assay [1] and in assay [2] was “decreased” each time.

For `CC1=C(O)C(=O)CO1` [4-hydroxy-5-methyl-3(2H)-furanone], the off-taste suppressing effect entry was “+ (intensity of the same level as potassium chloride aqueous solution with potassium chloride concentration of not less than 0.75 wt % and less than 0.8 wt %)” in assay [1] (setting [5]); “+ (intensity of the same level as potassium chloride aqueous solution with potassium chloride concentration of not less than 0.75 wt % and less than 0.8 wt %)” in assay [1] (setting [6]); “+ (intensity of the same level as potassium chloride aqueous solution with potassium chloride concentration of not less than 0.75 wt % and less than 0.8 wt %)” in assay [1] (setting [7]); “++ (intensity of the same level as potassium chloride aqueous solution with potassium chloride concentration of not less than 0.7 wt % and less than 0.75 wt %)” in assay [1] (setting [8]); “++ (intensity of the same level as potassium chloride aqueous solution with potassium chloride concentration of not less than 0.7 wt % and less than 0.75 wt %)” in assay [1] (setting [9]); “+ (intensity of the same level as potassium chloride aqueous solution with potassium chloride concentration of not less than 0.75 wt % and less than 0.8 wt %)” in assay [1] (setting [10]). The off-taste suppressing effect entry was “++ (intensity of the same level as potassium chloride aqueous solution with potassium chloride concentration of not less than 0.7 wt % and less than 0.75 wt %)” in assay [2] (setting [12]); “++ (intensity of the same level as potassium chloride aqueous solution with potassium chloride concentration of not less than 0.7 wt % and less than 0.75 wt %)” in assay [3] (setting [12]); “++ (intensity of the same level as potassium chloride aqueous solution with potassium chloride concentration of not less than 0.7 wt % and less than 0.75 wt %)” in assay [4] (setting [12]). The “intensity of off-tastes” value in assay [1] and in assay [2] was “decreased” throughout.
